Measured values from the supplement of paper PMC10627819.

Tests used:
B. subtilis 168 [1] = test: fitness (endpoint OD595 vs no drug) (fraction); higher = more growth
In short: (§1)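 Fitness was defined as the optical density at the transition into stationary phase relative to the robust mean of no-drug control wells. Values were capped at 1. Cultures were started at OD595 0.01 in 384-well plates (30 µl, or 55 µl for S. pneumoniae) in TSB, LB Lennox or CY at 37 °C. OD595 was recorded every 30 min over 14 h, with the first reading subtracted as background.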

S. pneumoniae D39V [2] = test: as above
In short: as §1

B. subtilis 168 [3] = test: Bliss interaction score (quartile over a dose matrix) (fitness difference); higher = more antagonism (negative = synergy)
In short: (§2)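 Fitness was derived from optical density at entry into stationary phase, divided by the robust mean of the no-drug wells on the same plate. That reading was taken as OD595, and the ratio was capped at 1. Single-drug fitness was inferred from the combination data. The Bliss score, observed fitness minus the expected product of single-drug fitness, was summarised as quartiles over technical, biological and donor/recipient replicates.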

S. aureus DSM 20231 = test: as above
In short: as §2

S. aureus Newman = test: as above
In short: as §2

S. pneumoniae D39V [4] = test: as above
In short: as §2
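Wherever Bliss interaction score (quartile over a dose matrix) is given: first quartile when negative (synergy) and third quartile when positive (antagonism).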

CN(C)C(=O)C(CCN1CCC(O)(c2ccc(Cl)cc2)CC1)(c1ccccc1)c1ccccc1 [Loperamide] + CN(C)c1cc(NC(=O)CNC(C)(C)C)c(O)c2c1C[C@H]1C[C@H]3[C@H](N(C)C)C(O)=C(C(N)=O)C(=O)[C@@]3(O)C(O)=C1C2=O [Tigecycline]
fitness
Settings | first compound 17.14 µg/mL | first compound 20 µg/mL | first compound 25 µg/mL | first compound 34.28 µg/mL | first compound 40 µg/mL | first compound 50 µg/mL | first compound 80 µg/mL | first compound 100 µg/mL
B. subtilis 168 [1], partner 0.039 µg/mL | – | – | 0.894 | – | – | 0.132 | – | 0.0203
B. subtilis 168 [1], partner 0.078 µg/mL | – | – | 0.832 | – | – | 0.0334 | – | 0.0305
B. subtilis 168 [1], partner 0.156 µg/mL | – | – | 0.825 | – | – | 0.0355 | – | 0.0215
S. pneumoniae D39V [2], partner 0.65 µg/mL | 0.945 | 0.995 | – | 0.993 | 0.991 | – | 0.0427 | –
S. pneumoniae D39V [2], partner 1.3 µg/mL | ≥ 1 | 0.931 | – | 0.991 | 0.977 | – | 0.0494 | –
S. pneumoniae D39V [2], partner 2.6 µg/mL | ≥ 1 | 0.944 | – | 0.98 | 0.995 | – | 0.0611 | –

fitness, one replicate
Settings | partner 0.125 µg/mL | partner 0.25 µg/mL | partner 0.5 µg/mL | partner 0.65 µg/mL | partner 1.3 µg/mL | partner 2.6 µg/mL
B. subtilis 168 [1], first compound 25 µg/mL | 0.978 | 0.884 | 0.858 | – | – | –
B. subtilis 168 [1], first compound 50 µg/mL | 0.327 | 0.22 | 0.272 | – | – | –
B. subtilis 168 [1], first compound 100 µg/mL | 0.67 | 0.512 | 0.67 | – | – | –
S. pneumoniae D39V [2], first compound 68.57 µg/mL | – | – | – | ≥ 1 | ≥ 1 | ≥ 1

Settings | Bliss interaction score
B. subtilis 168 [3] | 0.115
S. aureus DSM 20231 | -0.115
S. aureus Newman | 0.0321
S. pneumoniae D39V [4] | 0.084

CN(C)C(=O)C(CCN1CCC(O)(c2ccc(Cl)cc2)CC1)(c1ccccc1)c1ccccc1 [Loperamide] + CN(N=O)C(=O)N[C@@H](C=O)[C@@H](O)[C@H](O)[C@H](O)CO [Streptozotocin]
fitness, one replicate
Settings | first compound 20 µg/mL | first compound 25 µg/mL | first compound 40 µg/mL | first compound 50 µg/mL | first compound 68.57 µg/mL | first compound 80 µg/mL | first compound 100 µg/mL
B. subtilis 168 [1], partner 0.15 µg/mL | – | 0.843 | – | 0.0229 | – | – | 0.0221
B. subtilis 168 [1], partner 0.3 µg/mL | – | 0.802 | – | 0.0269 | – | – | 0.0127
B. subtilis 168 [1], partner 0.6 µg/mL | – | 0.821 | – | 0.025 | – | – | 0.02
S. pneumoniae D39V [2], partner 1.2 µg/mL | ≥ 1 | – | ≥ 1 | – | 0.971 | 0.0146 | –
S. pneumoniae D39V [2], partner 2.4 µg/mL | ≥ 1 | – | ≥ 1 | – | 0.929 | 0.0167 | –
S. pneumoniae D39V [2], partner 4.8 µg/mL | ≥ 1 | – | ≥ 1 | – | ≥ 1 | 0 | –

fitness, S. pneumoniae D39V [2]
Settings | partner 1.2 µg/mL | partner 2.4 µg/mL | partner 4.8 µg/mL
first compound 17.14 µg/mL | 0.962 | 0.943 | 0.974
first compound 34.28 µg/mL | 0.956 | 0.982 | 0.978

Settings | Bliss interaction score
B. subtilis 168 [3] | -0.0219
S. aureus DSM 20231 | 0.103
S. aureus Newman | 0.0514
S. pneumoniae D39V [4] | 0.0707

CN(C)C(=O)C(CCN1CCC(O)(c2ccc(Cl)cc2)CC1)(c1ccccc1)c1ccccc1 [Loperamide] + CN[C@@H]1[C@H](O)[C@H](NC)[C@H]2O[C@@]3(O)C(=O)C[C@@H](C)O[C@H]3O[C@@H]2[C@H]1O [Spectinomycin]
fitness
Settings | partner 2 µg/mL | partner 4 µg/mL | partner 8 µg/mL | partner 16 µg/mL
B. subtilis 168 [1], first compound 25 µg/mL | 0.812 | 0.78 | 0.566 | –
S. pneumoniae D39V [2], first compound 17.14 µg/mL | – | 0.983 | 0.974 | 0.93
S. pneumoniae D39V [2], first compound 34.28 µg/mL | – | 0.994 | 0.909 | 0.929

fitness, S. pneumoniae D39V [2], one replicate
Settings | first compound 20 µg/mL | first compound 40 µg/mL | first compound 68.57 µg/mL | first compound 80 µg/mL
partner 4 µg/mL | ≥ 1 | ≥ 1 | ≥ 1 | 0.977
partner 8 µg/mL | ≥ 1 | ≥ 1 | ≥ 1 | 0.966
partner 16 µg/mL | – | – | 0.983 | –

Settings | Bliss interaction score
B. subtilis 168 [3] | 0.354
S. aureus DSM 20231 | 0.104
S. aureus Newman | -0.103
S. pneumoniae D39V [4] | 0.126

CN(C)C(=O)C(CCN1CCC(O)(c2ccc(Cl)cc2)CC1)(c1ccccc1)c1ccccc1 [Loperamide] + CN[C@@H]1[C@H](O[C@H]2[C@H](O[C@H]3[C@H](O)[C@@H](O)[C@H](N=C(N)N)[C@@H](O)[C@@H]3N=C(N)N)O[C@@H](C)[C@]2(O)C=O)O[C@@H](CO)[C@H](O)[C@H]1O [Streptomycin]
fitness
Settings | partner 2 µg/mL | partner 4 µg/mL | partner 8 µg/mL
B. subtilis 168 [1], first compound 25 µg/mL | 0.643 | 0.106 | 0.0172
B. subtilis 168 [1], first compound 50 µg/mL | 0.0768 | 0.0399 | 0.019
B. subtilis 168 [1], first compound 100 µg/mL | 0.0865 | 0.0369 | 0.0223
S. pneumoniae D39V [2], first compound 17.14 µg/mL | 0.941 | 0.98 | 0.961
S. pneumoniae D39V [2], first compound 20 µg/mL | – | ≥ 1 | 0.987
S. pneumoniae D39V [2], first compound 34.28 µg/mL | 0.948 | 0.992 | 0.967
S. pneumoniae D39V [2], first compound 40 µg/mL | – | 0.997 | ≥ 1

fitness, S. pneumoniae D39V [2], one replicate
Settings | first compound 20 µg/mL | first compound 40 µg/mL | first compound 68.57 µg/mL | first compound 80 µg/mL
partner 2 µg/mL | ≥ 1 | ≥ 1 | 0.871 | 0.86
partner 4 µg/mL | – | – | 0.973 | –
partner 8 µg/mL | – | – | 0.966 | –
partner 16 µg/mL | 0.918 | 0.931 | – | 0.107

Settings | Bliss interaction score
B. subtilis 168 [3] | -0.0818
S. aureus DSM 20231 | -0.236
S. aureus Newman | 0.0869
S. pneumoniae D39V [4] | 0.125

CN(C)C(=O)C(CCN1CCC(O)(c2ccc(Cl)cc2)CC1)(c1ccccc1)c1ccccc1 [Loperamide] + COc1c(N2C[C@@H]3CCCN[C@@H]3C2)c(F)cc2c(=O)c(C(=O)O)cn(C3CC3)c12 [Moxifloxacin]
Settings | fitness
B. subtilis 168 [1], first compound 25 µg/mL, partner 0.0312 µg/mL | 0.0408
B. subtilis 168 [1], first compound 25 µg/mL, partner 0.0625 µg/mL | 0.0524
B. subtilis 168 [1], first compound 25 µg/mL, partner 0.125 µg/mL | 0.0382
B. subtilis 168 [1], first compound 25 µg/mL, partner 2 µg/mL | 0.0259
B. subtilis 168 [1], first compound 25 µg/mL, partner 4 µg/mL | 0.0205
B. subtilis 168 [1], first compound 25 µg/mL, partner 8 µg/mL | 0.017
B. subtilis 168 [1], first compound 50 µg/mL, partner 0.0312 µg/mL | 0.0458
B. subtilis 168 [1], first compound 50 µg/mL, partner 0.0625 µg/mL | 0.0525
B. subtilis 168 [1], first compound 50 µg/mL, partner 0.125 µg/mL | 0.068
B. subtilis 168 [1], first compound 50 µg/mL, partner 2 µg/mL | 0.0274
B. subtilis 168 [1], first compound 50 µg/mL, partner 4 µg/mL | 0.0294
B. subtilis 168 [1], first compound 50 µg/mL, partner 8 µg/mL | 0.0145
B. subtilis 168 [1], first compound 100 µg/mL, partner 0.0312 µg/mL | 0.0464
B. subtilis 168 [1], first compound 100 µg/mL, partner 0.0625 µg/mL | 0.0527
B. subtilis 168 [1], first compound 100 µg/mL, partner 0.125 µg/mL | 0.0413
B. subtilis 168 [1], first compound 100 µg/mL, partner 2 µg/mL | 0.0272
B. subtilis 168 [1], first compound 100 µg/mL, partner 4 µg/mL | 0.0176
B. subtilis 168 [1], first compound 100 µg/mL, partner 8 µg/mL | 0.0179
S. pneumoniae D39V [2], first compound 17.14 µg/mL, partner 0.0037 µg/mL | 0.897
S. pneumoniae D39V [2], first compound 17.14 µg/mL, partner 0.0075 µg/mL | 0.952
S. pneumoniae D39V [2], first compound 17.14 µg/mL, partner 0.015 µg/mL | 0.85
S. pneumoniae D39V [2], first compound 20 µg/mL, partner 0.005 µg/mL | ≥ 1
S. pneumoniae D39V [2], first compound 20 µg/mL, partner 0.01 µg/mL | ≥ 1
S. pneumoniae D39V [2], first compound 20 µg/mL, partner 0.02 µg/mL | ≥ 1
S. pneumoniae D39V [2], first compound 34.28 µg/mL, partner 0.0037 µg/mL | 0.822
S. pneumoniae D39V [2], first compound 34.28 µg/mL, partner 0.0075 µg/mL | 0.905
S. pneumoniae D39V [2], first compound 34.28 µg/mL, partner 0.015 µg/mL | 0.836
S. pneumoniae D39V [2], first compound 40 µg/mL, partner 0.005 µg/mL | ≥ 1
S. pneumoniae D39V [2], first compound 40 µg/mL, partner 0.01 µg/mL | ≥ 1
S. pneumoniae D39V [2], first compound 40 µg/mL, partner 0.02 µg/mL | ≥ 1

S. pneumoniae D39V [2], first compound 68.57 µg/mL, one replicate
Settings | fitness
partner 0.0037 µg/mL | 0.729
partner 0.0075 µg/mL | 0.796
partner 0.015 µg/mL | 0.779

Settings | Bliss interaction score
B. subtilis 168 [3] | 0.035
S. aureus DSM 20231 | 0.13
S. aureus Newman | 0.0359
S. pneumoniae D39V [4] | 0.0769
